Where “and” joins values, the source holds several entries; their conditions need not be identical. Equal values may be shown once. Inconclusive results and toxic doses are left out. Cut-off read from the data, not from the text of the source: active = T/C of 150% or more; inactive = T/C below 125%.
Test system: L1210 leukemia ip in BDF1 mice, survival T/C
Test: NCI In Vivo Anticancer Drug Screen. Data for tumor model L1210 Leukemia (intraperitoneal) in B6D2F1 (BDF1) mice
Details: endpoint: mean survival time, higher = longer survival
Method in brief: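 Transplanted-tumor mice were given test agent; controls received vehicle only. Survival readings from the two groups were divided (treated over control).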

[1] = dose: 100.0 mg/kg/injection, schedule: Q04DX002 (ip), vehicle: saline with Tween-80
[2] = dose: 200.0 mg/kg/injection, schedule: Q04DX002 (ip), vehicle: saline with Tween-80
[3] = dose: 400.0 mg/kg/injection, schedule: Q04DX002 (ip), vehicle: saline with Tween-80
[4] = dose: 100.0 mg/kg/injection, schedule: Q04DX003 (ip), vehicle: saline with Tween-80
[5] = dose: 200.0 mg/kg/injection, schedule: Q04DX003 (ip), vehicle: saline with Tween-80
[6] = dose: 400.0 mg/kg/injection, schedule: Q04DX003 (ip), vehicle: saline with Tween-80
[7] = dose: 25.0 mg/kg/injection, schedule: Q01DX009 (ip), vehicle: saline with Tween-80
[8] = dose: 50.0 mg/kg/injection, schedule: Q01DX009 (ip), vehicle: saline with Tween-80
[9] = dose: 100.0 mg/kg/injection, schedule: Q01DX009 (ip), vehicle: saline with Tween-80
[10] = dose: 100.0 mg/kg/injection, schedule: Q01DX001 (ip), vehicle: saline
[11] = dose: 100.0 mg/kg/injection, schedule: Q04DX003 (ip), vehicle: saline
[12] = dose: 200.0 mg/kg/injection, schedule: Q01DX001 (ip), vehicle: saline
[13] = dose: 200.0 mg/kg/injection, schedule: Q04DX003 (ip), vehicle: saline
[14] = dose: 400.0 mg/kg/injection, schedule: Q01DX001 (ip), vehicle: saline
[15] = dose: 400.0 mg/kg/injection, schedule: Q04DX003 (ip), vehicle: saline
[16] = dose: 100.0 mg/kg/injection, schedule: Q01DX001 (ip), vehicle: carboxymethylcellulose (CMC)
[17] = dose: 200.0 mg/kg/injection, schedule: Q01DX001 (ip), vehicle: carboxymethylcellulose (CMC)
[18] = dose: 400.0 mg/kg/injection, schedule: Q01DX001 (ip), vehicle: carboxymethylcellulose (CMC)
[19] = dose: 6.25 mg/kg/injection, schedule: Q01DX009 (ip), vehicle: saline
[20] = dose: 12.5 mg/kg/injection, schedule: Q01DX009 (ip), vehicle: saline
[21] = dose: 25.0 mg/kg/injection, schedule: Q01DX009 (ip), vehicle: saline

Measured: T/C

CC(=O)Nc1c2ccccc2nc2ccccc12
inactive: [1] 90 % of control | [2] 97 % of control | [3] 90 % of control

COc1cc(NS(=O)(=O)c2ccc(C(C)=O)cc2)nc(OC)n1
inactive: dose: 100.0 mg/kg/injection, schedule: Q01DX009 (ip), vehicle: Klucel (hydroxypropylcellulose) (HPC) 94 % of control | dose: 200.0 mg/kg/injection, schedule: Q01DX009 (ip), vehicle: Klucel (hydroxypropylcellulose) (HPC) 102 % of control | dose: 400.0 mg/kg/injection, schedule: Q01DX009 (ip), vehicle: Klucel (hydroxypropylcellulose) (HPC) 98 % of control

O=[N+]([O-])/C=C/c1c[nH]c2ccccc12
inactive: [4] 92 % of control | [5] 106 % of control | [6] 103 % of control

C/C=C(/Cl)c1c(C)cc(C)cc1C
inactive: [7] 91 % of control | [8] 98 % of control | [9] 89 % of control and 91 % of control | [4] 101 % of control | [5] 98 % of control | dose: 400.0 mg/kg/injection, schedule: Q01DX009 (ip), vehicle: saline with Tween-80 98 % of control | [6] 101 % of control

C[n+]1ccccc1C(=O)O
inactive: [10] 97 % of control | [11] 97 % of control | [12] 106 % of control | [13] 95 % of control | [14] 101 % of control | [15] 92 % of control

CCC[Si](C)(C)C
inactive: [16] 94 % of control | [17] 96 % of control | [18] 89 % of control

O=C1OC(/C=C/c2ccccc2)=NC/1=C\C=C\c1ccccc1
inactive: dose: 100.0 mg/kg/injection, schedule: Q04DX002 (ip), vehicle: Klucel (hydroxypropylcellulose) (HPC) 107 % of control | dose: 200.0 mg/kg/injection, schedule: Q04DX002 (ip), vehicle: Klucel (hydroxypropylcellulose) (HPC) 104 % of control | dose: 400.0 mg/kg/injection, schedule: Q04DX002 (ip), vehicle: Klucel (hydroxypropylcellulose) (HPC) 104 % of control

FC(F)(F)c1ccc2c(c1)N(CCCN1CC[N+]3(CCOCC3)CC1)c1ccccc1S2
inactive: [19] 97 % of control | [20] 95 % of control | dose: 12.5 mg/kg/injection, schedule: Q04DX003 (ip), vehicle: saline 114 % of control | dose: 25.0 mg/kg/injection, schedule: Q04DX003 (ip), vehicle: saline 91 % of control

CCN=C(NC(=S)Nc1ccc(Cl)cc1)SCC
inactive: [1] 98 % of control | [2] 98 % of control | [3] 95 % of control

Cc1ccccc1N=Nc1c(O)n(-c2ccc(Cl)cc2)c(=S)n(-c2ccccc2)c1=O
inactive: dose: 75.0 mg/kg/injection, schedule: Q04DX003 (ip), vehicle: Klucel (hydroxypropylcellulose) (HPC) 100 % of control | dose: 150.0 mg/kg/injection, schedule: Q04DX003 (ip), vehicle: Klucel (hydroxypropylcellulose) (HPC) 96 % of control | dose: 300.0 mg/kg/injection, schedule: Q04DX003 (ip), vehicle: Klucel (hydroxypropylcellulose) (HPC) 107 % of control

COc1ccc(OC)c(NC(=S)N/N=C(\C)c2cc(Cl)ccc2O)c1
inactive: dose: 12.5 mg/kg/injection, schedule: Q04DX002 (ip), vehicle: Klucel (hydroxypropylcellulose) (HPC) 102 % of control | dose: 25.0 mg/kg/injection, schedule: Q04DX002 (ip), vehicle: Klucel (hydroxypropylcellulose) (HPC) 102 % of control | dose: 50.0 mg/kg/injection, schedule: Q04DX002 (ip), vehicle: Klucel (hydroxypropylcellulose) (HPC) 118 % of control

O=C(CCl)Nc1ccc(SSc2ccc(NC(=O)CCl)cc2)cc1
inactive: dose: 50.0 mg/kg/injection, schedule: Q04DX003 (ip), vehicle: Klucel (hydroxypropylcellulose) (HPC) 95 % of control | dose: 100.0 mg/kg/injection, schedule: Q04DX003 (ip), vehicle: Klucel (hydroxypropylcellulose) (HPC) 101 % of control | dose: 200.0 mg/kg/injection, schedule: Q04DX003 (ip), vehicle: Klucel (hydroxypropylcellulose) (HPC) 101 % of control

CC(CS(=O)(=O)O)NC(CO)(CO)CO (centres undefined)
inactive: dose: 100.0 mg/kg/injection, schedule: Q01DX009 (ip), vehicle: saline 104 % of control | [11] 100 % of control | dose: 200.0 mg/kg/injection, schedule: Q01DX009 (ip), vehicle: saline 98 % of control | [13] 100 % of control | dose: 400.0 mg/kg/injection, schedule: Q01DX009 (ip), vehicle: saline 96 % of control | [15] 100 % of control

CC(=O)OC1C(C)OC(n2cnc3c(=O)[nH]cnc32)C1OC(C)=O (centres undefined)
inactive: dose: 50.0 mg/kg/injection, schedule: Q01DX001 (ip), vehicle: carboxymethylcellulose (CMC) 106 % of control | [16] 106 % of control | [17] 108 % of control | [18] 101 % of control

COc1ccc(C(=O)C/C(=N\N(C(=O)c2ccc(OC)cc2)c2ccccc2)c2ccc(OC)cc2)cc1
inactive: [8] 100 % of control | [9] 93 % of control | dose: 200.0 mg/kg/injection, schedule: Q01DX009 (ip), vehicle: saline with Tween-80 98 % of control

COc1ccc2nc(N)sc2c1
inactive: dose: 12.5 mg/kg/injection, schedule: Q01DX009 (ip), vehicle: saline with Tween-80 96 % of control | [7] 89 % of control | [8] 97 % of control and 91 % of control | dose: 50.0 mg/kg/injection, schedule: Q04DX003 (ip), vehicle: saline with Tween-80 107 % of control | [4] 112 % of control | [5] 93 % of control

O=C1CCC(c2ccccc2)(C2CCN(Cc3ccc(F)cc3)CC2)C(=O)N1 (centres undefined)
inactive: [19] 97 % of control | [20] 102 % of control | [21] 102 % of control

CCN1/C(=C/C=C2/SC(=S)N(CC(=O)O)C2=O)Oc2ccccc21
inactive: dose: 50.0 mg/kg/injection, schedule: Q01DX001 (ip), vehicle: saline 100 % of control | [10] 96 % of control | [12] 100 % of control | [14] 106 % of control

c1ccc2c3csc4ccccc4c-3nc2c1
inactive: [19] 97 % of control | [20] 101 % of control | dose: 12.5 mg/kg/injection, schedule: Q04DX003 (ip), vehicle: Klucel (hydroxypropylcellulose) (HPC) 94 % of control | [21] 103 % of control | dose: 25.0 mg/kg/injection, schedule: Q04DX003 (ip), vehicle: Klucel (hydroxypropylcellulose) (HPC) 94 % of control | dose: 35.0 mg/kg/injection, schedule: Q01DX009 (ip), vehicle: Klucel (hydroxypropylcellulose) (HPC) 91 % of control

CCCCN(C)c1ccc(N=Nc2cc(Cl)ccc2Cl)cc1
inactive: [4] 98 % of control | [6] 86 % of control

CSc1cc2c(cc1NC(C)=O)C(=O)c1cc(F)ccc1-2
inactive: [16] 98 % of control | [17] 101 % of control | [18] 95 % of control

CCN(CC)c1ccc(/C=N/N=C(N)N)cc1
inactive: dose: 3.8 mg/kg/injection, schedule: Q01DX Z (ip), vehicle: other 109 % of control | dose: 7.5 mg/kg/injection, schedule: Q01DX Z (ip), vehicle: other 88 % of control | dose: 15.0 mg/kg/injection, schedule: Q01DX Z (ip), vehicle: other 97 % of control

From PubChem BioAssay AID248 (DTP/NCI, 2004)
